# Measured values published in US8808702B2, “Sulfide, sulfoxide and sulfone chalcone analogues, derivatives thereof and therapeutic uses thereof” (Temple University-of the Commonwealth System of Higher …, priority 2006, dated 2014).
# Read-outs that look alike come from different tables or passages of the source.
# Key:
# [1] = system: K562 (chronic myelogenous leukaemia); assay: Effect of compounds on tumor cell lines (assay of Latham et al.), K562; assay type: cell-based; conditions: K562 cells, read-out: K 562 potency (IC50)
# Procedure, shortened: (§1)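 After 96 h of exposure to compound (1–100 μM in DMSO; one compound at 0.1–100 μM), effects were scored by inverted-microscope inspection, with trypan blue viable counts by hemacytometer when required. Cells were seeded at 2.5×10^4 per well and dosed 24 h after plating.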
# DU145 (prostate cancer) = assay: Effect of compounds on tumor cell lines (assay of Latham et al.), DU145; assay type: cell-based; conditions: DU145 cells, read-out: DU 145 potency (IC50)
# Procedure, shortened: as §1
# [2] = 96 hours after treatment, 1 μM to 100 μM
# [3] = Table 1, examined 96 hours after treatment, 1 μM to 100 μM in DMSO
Compound,"IC50 [1, 2]",IC50 (DU145 (prostate cancer); [2]),"IC50 [1, 3]",IC50 (DU145 (prostate cancer); [3]),further results
O=C(C(=Cc1ccccc1OCc1ccccc1)SCc1ccc(Cl)c(Cl)c1)c1ccc(Cl)cc1 [Example 139],10 to 25 µM,10 to 25 µM,–,–,–
O=C(C(=Cc1ccc(Br)cc1)SCc1ccccc1Cl)c1ccc(Cl)cc1 [Example 129],1 to 10 µM,10 to 25 µM,–,–,–
O=C(C(=Cc1ccc(Br)cc1)Sc1ccc(Br)cc1)c1ccc(Cl)cc1 [Example 36],–,–,1 to 10 µM,1 to 10 µM,–
CN(C)c1ccc(C=C(SCc2ccc(Cl)cc2Cl)C(=O)c2ccc(Cl)cc2)cc1 [Example 120],> 100 µM,50 to 100 µM,–,–,–
O=C(C(=Cc1ccc(Cl)cc1)SCc1ccc(Cl)cc1Cl)c1ccc(Cl)cc1 [Example 122],1 to 10 µM,10 to 25 µM,–,–,–
COc1ccc(SC(=Cc2ccc(C)s2)C(=O)c2ccc(Cl)cc2)cc1 [Example 64],–,–,50 to 100 µM,50 to 100 µM,–
COc1ccc(C=C(Sc2ccc(C)cc2)C(=O)c2ccc(Cl)cc2)cc1O [Example 79],–,–,1 to 10 µM,1 to 10 µM,–
COc1ccc2[nH]cc(C=C(Sc3ccc(Br)cc3)C(=O)c3ccc(Br)cc3)c2c1 [Example 52],–,–,1 to 10 µM,1 to 10 µM,–
O=C(C(=Cc1ccc(O)c([N+](=O)[O-])c1)Sc1ccc(Br)cc1)c1ccc(Br)cc1 [Example 43],–,–,1 to 10 µM,1 to 10 µM,–
Cc1ccc(SC(=Cc2c[nH]c3ccc(Cl)cc23)C(=O)c2ccc(Cl)cc2)cc1 [Example 108],–,–,1 to 10 µM,1 to 10 µM,–
"O=C(/C(=C\c1ccc(Cl)cc1Cl)Sc1ccc(Br)cc1)c1ccc(Br)cc1 [Example 15, (E)-1-(4-Bromophenyl)-2-(4-bromophenylthio)-3-(2,4-dichlorophenyl)-prop-2-en-1-one]",–,–,–,–,"IC50 ([1]; Homo sapiens, Table 1, examined 96 hours after treatment, 1 μM to 100 μM in DMSO): 1 to 10 µM; IC50 (DU145 (prostate cancer); Homo sapiens, DU-145, Table 1, examined 96 hours after treatment, 1 μM to 100 μM in DMSO): 1 to 10 µM"
O=C(C(=Cc1ccc(Cl)cc1)SCc1ccccc1Cl)c1ccc(Cl)cc1 [Example 130],1 to 10 µM,10 to 25 µM,–,–,–
Cc1ccc(SC(=Cc2c[nH]c3ccc(Br)cc23)C(=O)c2ccc(Cl)cc2)cc1 [Example 106],–,–,1 to 10 µM,1 to 10 µM,–
CCOc1ccc(C=C(SCc2ccccc2Cl)C(=O)c2ccc(Cl)cc2)cc1OC [Example 131],1 to 10 µM,50 to 100 µM,–,–,–
COc1ccc(C(=O)C(=Cc2c(OC)cc(OC)cc2OC)Sc2ccc(F)cc2)cc1 [Example 54],–,–,50 to 100 µM,50 to 100 µM,–

# The next lines start with results.
"IC50 [1, 2]",IC50 (DU145 (prostate cancer); [2]),Compound,"IC50 [1, 3]",IC50 (DU145 (prostate cancer); [3]),further results
> 100 µM,> 100 µM,O=C(C(=Cc1c(O)cc(O)cc1O)SCc1ccc(Cl)cc1)c1ccc(Cl)cc1 [Example 192],–,–,–
10 to 25 µM,1 to 10 µM,COc1cc(OC)c(C=C(SCc2ccc(Cl)cc2)C(=O)c2ccc(Br)cc2)c(OC)c1 [Example 193],–,–,–
> 100 µM,> 100 µM,O=C(O)c1ccc(C=C(SCc2ccc(Cl)cc2)C(=O)c2ccc(C(=O)O)cc2)cc1 [Example 323],–,–,–
≤ 1 µM,1 to 10 µM,Cc1ccc(CSC(=Cc2ccc(Cl)c([N+](=O)[O-])c2)C(=O)c2ccc(C(=O)O)cc2)cc1 [Example 287],–,–,–
50 to 100 µM,1 to 10 µM,Cc1ccc(C)c(C=C(SCc2ccc(F)cc2)C(=O)c2ccc(Br)cc2)c1 [Example 235],–,–,–
1 to 10 µM,25 to 50 µM,COc1ccc(C=C(SCc2ccc(Cl)cc2)C(=O)c2ccc(Br)cc2)cc1 [Example 226],–,–,–
25 to 50 µM,> 100 µM,CSc1ccc(C=C(SCc2ccc(C)cc2)C(=O)c2ccc(Br)cc2)cc1 [Example 293],–,–,–
10 to 25 µM,10 to 25 µM,COc1ccccc1C=C(SCc1ccc(C)cc1)C(=O)c1ccc(Cl)cc1 [Example 279],–,–,–
10 to 25 µM,10 to 25 µM,Cc1ccc(C)c(C=C(SCc2ccc(Cl)cc2)C(=O)c2ccc(Cl)cc2)c1 [Example 197],–,–,–
